Laboratory results from paper PMC6152226, “Composition and Antioxidant, Antienzymatic and Antimicrobial Activities of Volatile Molecules from Spanish Salvia lavandulifolia (Vahl) Essential Oils” (Molecules : A Journal of Synthetic Chemistry and Natural …, 2017).
Converted amounts (≈) assume the structure as drawn. Counter-ions that a name gives are not always drawn. Like-named read-outs stand apart in the source and are kept apart here.

Legend:
DPPH radical method = settings: individual compounds; maximum assay concentration 100 mM
Experimental: (§1) Five antioxidant methods were performed with SlEOs and their main individual compounds in triplicate. In the oxygen radical absorbance capacity (ORAC) assay, peroxyl radicals are produced by 2,2′-Azobis(2-methylpropionamidine) dihydrochloride (AAPH), which reacts with fluorescein giving a non-fluorescent compound [61]. The antioxidants are able to scavenge these peroxyl radicals. Trolox was used as the reference antioxidant. The 2,2-diphenyl-1-picrylhydrazyl (DPPH) and 2,2′-azino-bis(3-ethylbenzothiazoline-6-sulphonic acid) (ABTS) methods measure the bleaching produced by the reduction of the coloured DPPH and ABTS radicals. Trolox was used as the reference antioxidant. The RdP method measure the ability to reduce ferric ions, according to the method of Oyaizu. Ascorbic acid was the reference antioxidant used in this method. The ChP method measured the ability to chelate Fe^2+ ion, following the method of Miguel et al.. EDTA was used as reference antioxidant. The SlEOs were diluted in 100% ethanol in the DPPH, ABTS, RdP and ChP methods, whereas in the ORAC method, SlEOs were diluted in 15% ethanol to obtain a final concentration of 5% ethanol in the reaction medium. All measurements were made at the end-point of the reaction, except in the ORAC method (Figure S5).

ABTS radical method = settings: individual compounds; maximum assay concentration 100 mM
Experimental: as §1

[1] = tested on: Candida albicans ATCC 10231; assay: Broth microdilution MIC and MFC; assay type: cell-based
Experimental: (§2) The following test microorganisms used in this work were acquired from Sigma-Aldrich: Pseudomonas aeruginosa ATCC 9027, Escherichia coli ATCC 8739, Staphylococcus aureus ATCC 6538, and Candida albicans ATCC 10231. The stock cultures were preserved in TSB or YPD with 15% glycerol, for bacteria and yeast cells, respectively, at −80 °C. Isolated colonies from an 18- to 24-h agar plate were transferred to MHB for bacteria and RPMI-1640 for C. albicans.
(§3) MIC were determined using the broth microdilution method in 96-well microplates, according to the M07-A10 [69] standard for bacteria and the M27-A3 [70] for Candida. Briefly, two-fold dilutions of a 40 µL/mL SlEOs were prepared to obtain a final concentration range of 0.08–20 µL/mL with 0.5% Tween®80 and 2.5% DMSO. The antimicrobial activities of main compounds were also tested in the concentration range of 0.12–15 mM with 0.5% Tween®80 and 2.5% DMSO as solvent. The final strain concentration was 5 × 10^5 CFU/mL in MHB for the bacteria and 0.5−2.5 × 10^3 in RPMI-1640 for the yeast. These plates were incubated for 24 h for bacteria and 48 h for Candida, both at 35 ± 1 °C, under aerobic conditions on a plate shaker at 100 rpm. Streptomycin (0.06–8.00 µg/mL) and fluconazole (0.13–16 µg/mL) were used as reference antibacterial and antifungal compound, respectively. […] MIC is defined as the lowest concentration of EO or individual compound with no visible growth of microorganisms, at the end of the incubation period. […] All determinations were carried out in triplicate.

[2] = tested on: Staphylococcus aureus ATCC 6538; assay: Broth microdilution MIC and MBC; assay type: cell-based
Experimental: as §2, §3

[3] = tested on: Escherichia coli ATCC 8739; assay: Broth microdilution MIC and MBC; assay type: cell-based
Experimental: as §2, §3

[4] = Chelating power (ChP) method; settings: individual compounds; maximum assay concentration 100 mM
Experimental: as §1

[5] = Reducing power (RdP) method; settings: individual compounds; maximum assay concentration 100 mM
Experimental: as §1

[6] = Oxygen radical absorbance capacity (ORAC) assay; settings: individual compounds; maximum assay concentration 100 mM
Experimental: as §1

LOX = target: T1, LOX (Glycine max, UniProt P08170); assay: LOX inhibition assay; assay type: biochemical, Glycine max (soybean)
T1 construct: purchased Sigma-Aldrich
T1 sequence (P08170 whole entry): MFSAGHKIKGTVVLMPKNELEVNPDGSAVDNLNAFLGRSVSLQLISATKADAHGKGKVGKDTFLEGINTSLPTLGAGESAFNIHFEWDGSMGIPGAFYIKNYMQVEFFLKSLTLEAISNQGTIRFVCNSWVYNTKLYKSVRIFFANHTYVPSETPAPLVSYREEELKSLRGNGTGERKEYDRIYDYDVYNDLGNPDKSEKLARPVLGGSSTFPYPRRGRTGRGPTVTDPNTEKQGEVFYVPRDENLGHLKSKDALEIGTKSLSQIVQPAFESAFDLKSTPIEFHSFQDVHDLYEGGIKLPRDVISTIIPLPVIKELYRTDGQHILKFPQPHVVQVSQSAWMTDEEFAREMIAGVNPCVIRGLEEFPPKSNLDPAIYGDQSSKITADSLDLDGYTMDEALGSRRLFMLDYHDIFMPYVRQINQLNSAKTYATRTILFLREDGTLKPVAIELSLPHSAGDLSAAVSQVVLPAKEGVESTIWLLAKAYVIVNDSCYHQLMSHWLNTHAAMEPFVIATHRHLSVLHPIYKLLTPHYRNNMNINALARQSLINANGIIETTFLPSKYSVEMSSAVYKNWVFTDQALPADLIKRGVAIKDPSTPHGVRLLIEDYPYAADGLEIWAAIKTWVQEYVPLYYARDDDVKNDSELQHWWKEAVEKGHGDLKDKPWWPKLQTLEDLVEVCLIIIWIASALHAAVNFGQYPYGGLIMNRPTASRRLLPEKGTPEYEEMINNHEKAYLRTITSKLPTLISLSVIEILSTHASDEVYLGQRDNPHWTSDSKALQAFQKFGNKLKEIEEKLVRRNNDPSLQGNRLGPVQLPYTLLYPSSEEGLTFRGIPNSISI
Experimental: A LOX preparation from Glycine max (soybean) was acquired from Sigma-Aldrich. LOX inhibitory activity was determined as previously reported, based on the absorption at 234 nm of the hydroperoxyde conjugated dienes (ε = 25,000 M^−1 cm^−1), which are generated from the oxidation of linoleic acid in the presence of oxygen and LOX. This assay was carried out on a double beam Lambda 35 spectrophotometer (PerkinElmer, Madrid, Spain) with the UV-Winlab software, at 25 °C.
The DI in both antienzymatic assays were calculated using Equation (1):(1) DI (%)= ν0−νi/ν0 × 100 where v0 and v1 are the steady state rates without and with inhibitor, respectively. The inhibitions of LOX were reported as DI at 150 µg/mL of each SlEO. […] To calculate the IC50 values, data of DI (%) of seven different concentrations of each SlEO were plotted and fitted by non-linear regression according to Equation (2) using Sigma Plot software (systatsoftware.com) (Figure S6). The inhibitions of LOX and AChE by individual compounds were reported as IC50 or DI, depending on their inhibition capacities and solubilities.
(2) DI (%)= DImax [I]0/IC50+ [I]0

Structure (SMILES)	DPPH (DPPH radical method)	ABTS (ABTS radical method)	MIC ([1]; ATCC10231, 48 h, read-out: MIC) [µg/mL]	MFC ([1]; ATCC10231, read-out: MFC) [µg/mL]	MIC ([2]; ATCC6538, 24 h, read-out: MIC) [µg/mL]	MBC ([2]; ATCC6538, read-out: MBC) [µg/mL]	MIC ([3]; ATCC8739, 24 h, read-out: MIC) [µg/mL]	MBC ([3]; ATCC8739, read-out: MBC) [µg/mL]	ChP [4]	RdP [5]	ORAC [6]	other results
CC1(C)C2CCC1(C)C(O)C2 (stereo not drawn) [Borneol]	N/D (Activity lower than 0.05 units at a maximum assay concentration of 100 mM)	N/D (Activity lower than 0.05 units at a maximum assay concentration of 100 mM)	600 (≈ 3.89 mM)	600 (≈ 3.89 mM)	300 (≈ 1.94 mM)	300 (≈ 1.94 mM)	1100 (≈ 7.13 mM)	1100 (≈ 7.13 mM)	N/D (Activity lower than 0.05 units at a maximum assay concentration of 100 mM)	N/D (Activity lower than 0.05 units at a maximum assay concentration of 100 mM)	N/D (Activity lower than 0.05 units at a maximum assay concentration of 100 mM)	
CC(=O)OC1CC2CCC1(C)C2(C)C (stereo not drawn) [Bornyl acetate]	N/D (Activity lower than 0.05 units at a maximum assay concentration of 100 mM)	N/D (Activity lower than 0.05 units at a maximum assay concentration of 100 mM)	> 2900	> 2900	2900	> 2900	> 2900	> 2900	N/D (Activity lower than 0.05 units at a maximum assay concentration of 100 mM)	N/D (Activity lower than 0.05 units at a maximum assay concentration of 100 mM)	N/D (Activity lower than 0.05 units at a maximum assay concentration of 100 mM)	IC50 (LOX): 380 µM
OC(Cn1cncn1)(Cn1cncn1)c1ccc(F)cc1F [Fluconazole, reference compound]			4 (≈ 0.0131 mM)	4 (≈ 0.0131 mM)								
C=CC(C)(CCC=C(C)C)OC(C)=O (stereo not drawn) [Linalyl acetate]	N/D (Activity lower than 0.05 units at a maximum assay concentration of 100 mM)	0.1 ± 0.0 µmol TE/mmol X							27.4 ± 2.1 µmol EDTAE/mmol X	N/D (Activity lower than 0.05 units at a maximum assay concentration of 100 mM)	207.1 ± 13.2 µmol TE/mmol X	MFC ([1]; ATCC10231): > 3000 µg/mL; MIC ([1]; ATCC10231, 48 h): > 3000 µg/mL; MBC ([2]; ATCC6538): > 3000 µg/mL; MIC ([2]; ATCC6538, 24 h): 3000 µg/mL; MBC ([3]; ATCC8739): > 3000 µg/mL; MIC ([3]; ATCC8739, 24 h): > 3000 µg/mL
C=CC(=C)CCC=C(C)C [Myrcene]	N/D (Activity lower than 0.05 units at a maximum assay concentration of 100 mM)	N/D (Activity lower than 0.05 units at a maximum assay concentration of 100 mM)	> 2100	> 2100	> 2100	> 2100	> 2100	> 2100	2.5 ± 0.2 µmol EDTAE/mmol X	N/D (Activity lower than 0.05 units at a maximum assay concentration of 100 mM)	N/D (Activity lower than 0.05 units at a maximum assay concentration of 100 mM)	
CC(C)C12CCC(C)(O)C1C2 (stereo not drawn) [Sabinene hydrate]	N/D (Activity lower than 0.05 units at a maximum assay concentration of 100 mM)	0.5 ± 0.0 µmol TE/mmol X							6.7 ± 0.6 µmol EDTAE/mmol X	N/D (Activity lower than 0.05 units at a maximum assay concentration of 100 mM)	N/D (Activity lower than 0.05 units at a maximum assay concentration of 100 mM)	
C=C1CCC2(C(C)C)CC12 (stereo not drawn) [Sabinene]			> 2000	> 2000	> 2000	> 2000	> 2000	> 2000				
[H]/N=C(/N)N[C@H]1[C@H](O)[C@@H](O)[C@H](O[C@@H]2O[C@@H](C)[C@](O)(C=O)[C@H]2O[C@@H]2O[C@@H](CO)[C@H](O)[C@@H](O)[C@@H]2NC)[C@@H](N/C(N)=N\[H])[C@@H]1O [Streptomycin sulfate, reference compound]					1	1	1	1				
Cc1ccc(C(C)C)cc1 [p-Cymene]	N/D (Activity lower than 0.05 units at a maximum assay concentration of 100 mM)	0.1 ± 0.0 µmol TE/mmol X	500 (≈ 3.73 mM)	500 (≈ 3.73 mM)	> 2000	> 2000	1000 (≈ 7.45 mM)	2000 (≈ 14.9 mM)	20.1 ± 1.6 µmol EDTAE/mmol X	N/D (Activity lower than 0.05 units at a maximum assay concentration of 100 mM)	N/D (Activity lower than 0.05 units at a maximum assay concentration of 100 mM)	
C/C1=C\CC/C(C)=C/CC(C)(C)/C=C/C1 [α-Humulene]												MFC [1]: >3000 µg/mL; MIC ([1]; 48 h): >3000 µg/mL; MBC [2]: 3000 µg/mL (≈ 14.7 mM); MIC ([2]; 24 h): 1600 µg/mL (≈ 7.83 mM); MBC [3]: >3000 µg/mL; MIC ([3]; 24 h): >3000 µg/mL
CC1=CC=C(C(C)C)CC1 [α-Terpinene]	0.3 ± 0.0 µmol TE/mmol X	4.0 ± 0.2 µmol TE/mmol X							62.2 ± 4.7 µmol EDTAE/mmol X	1.9 ± 0.1 µmol AAE/mmol X	N/D (Activity lower than 0.05 units at a maximum assay concentration of 100 mM)	
C=C1CC/C=C(\C)CC[C@@H]2[C@@H]1CC2(C)C [β-Caryophyllene, (E)-β-Caryophyllene]	N/D (Activity lower than 0.05 units at a maximum assay concentration of 100 mM)	N/D (Activity lower than 0.05 units at a maximum assay concentration of 100 mM)	> 3100	> 3100	> 3100	> 3100	> 3100	> 3100	7.1 ± 0.5 µmol EDTAE/mmol X	N/D (Activity lower than 0.05 units at a maximum assay concentration of 100 mM)	394.7 ± 14.5 µmol TE/mmol X	
C=C1CCC2CC1C2(C)C (stereo not drawn) [β-Pinene]	N/D (Activity lower than 0.05 units at a maximum assay concentration of 100 mM)	0.1 ± 0.0 µmol TE/mmol X	> 2000	> 2000	> 2000	> 2000	> 2000	> 2000	1.8 ± 0.1 µmol EDTAE/mmol X	N/D (Activity lower than 0.05 units at a maximum assay concentration of 100 mM)	26.6 ± 1.6 µmol TE/mmol X	
CC1=CCC(C(C)C)=CC1 [γ-Terpinene]	0.3 ± 0.0 µmol TE/mmol X	2.5 ± 0.1 µmol TE/mmol X							0.3 ± 0.0 µmol EDTAE/mmol X	0.3 ± 0.0 µmol AAE/mmol X	171.4 ± 10.3 µmol TE/mmol X	
